Results reported in ChEMBL document CHEMBL5120790, “Secondary Metabolites from Annulohypoxylon sp. and Structural Revision of Emericellins A and B” (2022).

Legend:
Type in all cases: functional
Staphylococcus aureus = test: Antibacterial activity against Staphylococcus aureus assessed as reduction in microbial growth after 24 hrs by two-fold dilution method
Escherichia coli = test: Antibacterial activity against Escherichia coli assessed as reduction in microbial growth after 24 hrs by two-fold dilution method
Candida albicans = test: Antifungal activity against Candida albicans assessed as reduction in microbial growth after 3 days by two-fold dilution method
Bacillus subtilis = test: Antibacterial activity against Bacillus subtilis assessed as reduction in microbial growth after 24 hrs by two-fold dilution method

## COc1cc2c(c(O)c1OC)CO[C@](C)(O)C2=O
Staphylococcus aureus
  MIC: > 256 µg/mL
Escherichia coli
  MIC: > 256 µg/mL
Candida albicans; 72 h, time 3 day
  MIC: 32 µg/mL
Bacillus subtilis
  MIC: > 256 µg/mL

## C[C@@]12CC[C@@](O)(CO)[C@@H](C1)[C@]1(C)CCC[C@]21C
Staphylococcus aureus
  MIC: 64 µg/mL
Escherichia coli
  MIC: 64 µg/mL
Candida albicans; 72 h, time 3 day
  MIC: > 256 µg/mL
Bacillus subtilis
  MIC: 32 µg/mL

## C[C@@]12CC=C(CO)[C@@H](C1)[C@]1(C)CCC[C@]21C
Staphylococcus aureus
  MIC: 32 µg/mL
Escherichia coli
  MIC: 64 µg/mL
Candida albicans; 72 h, time 3 day
  MIC: > 256 µg/mL
Bacillus subtilis
  MIC: 32 µg/mL

## C[C@H](C[C@@H](O)[C@H](O)C(C)(C)O)[C@H]1CC[C@@](C)(O)[C@@H](O)C1
Staphylococcus aureus
  MIC: 64 µg/mL
Escherichia coli
  MIC: 64 µg/mL
Candida albicans; 72 h, time 3 day
  MIC: > 256 µg/mL
Bacillus subtilis
  MIC: 64 µg/mL

## NC[C@H]1O[C@H](O[C@H]2[C@H](O)[C@@H](O[C@H]3O[C@H](CO)[C@@H](O)[C@H](N)[C@H]3O)[C@H](N)C[C@@H]2N)[C@H](O)[C@@H](O)[C@@H]1O [KANAMYCIN]
Staphylococcus aureus
  MIC: 1 µg/mL
Escherichia coli
  MIC: 1 µg/mL
Bacillus subtilis
  MIC: 1 µg/mL

## C[C@]12CCC[C@@]1(C)[C@@H]1C[C@@]2(C)[C@H](O)C[C@@]1(O)CO
Staphylococcus aureus
  MIC: 32 µg/mL
Escherichia coli
  MIC: 2 µg/mL
Candida albicans; 72 h, time 3 day
  MIC: > 256 µg/mL
Bacillus subtilis
  MIC: 16 µg/mL

## NYSTATIN
Candida albicans; time 3.0 day
  MIC: 1 µg/mL

## C/C=C/C[C@H](CO)[C@H](O)[C@H](C)O
Staphylococcus aureus
  MIC: > 256 µg/mL
Escherichia coli
  MIC: > 256 µg/mL
Candida albicans; 72 h, time 3 day
  MIC: 64 µg/mL
Bacillus subtilis
  MIC: > 256 µg/mL

## C[C@@]12CC[C@@](O)(CO)[C@@H](C1)[C@@]1(C)CCC[C@@]21C
Staphylococcus aureus
  MIC: 64 µg/mL
Escherichia coli
  MIC: 64 µg/mL
Candida albicans; 72 h, time 3 day
  MIC: > 256 µg/mL
Bacillus subtilis
  MIC: 64 µg/mL

## CC[C@H](O)[C@H](O)C[C@H](C)O
Staphylococcus aureus
  MIC: > 256 µg/mL
Escherichia coli
  MIC: > 256 µg/mL
Candida albicans; 72 h, time 3 day
  MIC: 64 µg/mL
Bacillus subtilis
  MIC: > 256 µg/mL

## C[C@@]12CC[C@@](O)(CO)[C@@H](C1)[C@]1(C)C[C@@H](O)C[C@]21C
Staphylococcus aureus
  MIC: 32 µg/mL
Escherichia coli
  MIC: 4 µg/mL
Candida albicans; 72 h, time 3 day
  MIC: > 256 µg/mL
Bacillus subtilis
  MIC: 32 µg/mL
